Measured values as given in US10975069B2, “Sigma-2 receptor ligand drug conjugates as antitumor compounds, methods of synthesis and uses thereof” (priority 2014, dated 2021).
Like-named read-outs stand apart in the source and are kept apart here.

Columns and labels:
[1] = target: T1, cystine/glutamate antiporter (system Xc′) (Homo sapiens, UniProt Q9UPY5); test: Cystine uptake assay in AsPC-1 cells; type: cell-based; conditions: FIG. 11A; for reduction in cystine uptake: same concentration of each compound (200 μM), DMSO control
T1 construct: endogenous in cells; host or cells: AsPC-1
T1 sequence (Q9UPY5 1-501): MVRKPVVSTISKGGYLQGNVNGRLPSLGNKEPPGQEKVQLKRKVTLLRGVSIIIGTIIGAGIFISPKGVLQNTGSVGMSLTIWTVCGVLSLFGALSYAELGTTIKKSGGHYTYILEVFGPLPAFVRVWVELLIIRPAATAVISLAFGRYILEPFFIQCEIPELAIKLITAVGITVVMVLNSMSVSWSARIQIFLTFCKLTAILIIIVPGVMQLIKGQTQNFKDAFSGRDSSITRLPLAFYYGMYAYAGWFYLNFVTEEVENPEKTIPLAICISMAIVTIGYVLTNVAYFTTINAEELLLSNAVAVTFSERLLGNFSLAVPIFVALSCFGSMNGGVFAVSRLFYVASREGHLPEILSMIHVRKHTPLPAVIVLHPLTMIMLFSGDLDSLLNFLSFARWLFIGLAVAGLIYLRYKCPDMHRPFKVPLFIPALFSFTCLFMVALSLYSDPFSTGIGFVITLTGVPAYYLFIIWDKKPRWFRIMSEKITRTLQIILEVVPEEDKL
T1 sequence (P08195 1-529 partner): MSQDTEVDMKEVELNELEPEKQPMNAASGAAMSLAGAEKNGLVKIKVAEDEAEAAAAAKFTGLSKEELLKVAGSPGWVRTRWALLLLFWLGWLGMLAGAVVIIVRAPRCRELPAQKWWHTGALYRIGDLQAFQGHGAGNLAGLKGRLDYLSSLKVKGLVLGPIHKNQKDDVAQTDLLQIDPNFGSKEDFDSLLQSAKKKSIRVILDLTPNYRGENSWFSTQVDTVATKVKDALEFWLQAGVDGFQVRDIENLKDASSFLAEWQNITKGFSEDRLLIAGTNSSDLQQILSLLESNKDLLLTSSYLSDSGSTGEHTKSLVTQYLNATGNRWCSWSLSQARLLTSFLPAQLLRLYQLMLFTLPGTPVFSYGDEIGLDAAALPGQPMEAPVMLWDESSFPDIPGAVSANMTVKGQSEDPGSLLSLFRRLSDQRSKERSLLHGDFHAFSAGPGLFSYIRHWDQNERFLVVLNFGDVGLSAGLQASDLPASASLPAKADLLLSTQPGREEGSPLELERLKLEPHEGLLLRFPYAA
Protocol: In these experiments, cystine uptake assay was performed as previously described (Dixon, S. J. et al. Cell 2012; 149: 1060-1072). Briefly, […] AsPC-1 cells/well were seeded overnight in 6 well plate. The next day, cells were washed twice in pre-warmed Na^+-free uptake buffer (137 mM choline chloride, 3 mM KCl, 1 mM CaCl2, 1 mM MgCl2, 5 mM D-glucose, 0.7 mM K2HPO4, and 10 mM HEPES [pH 7.4]). Subsequently, cells were incubated for 10 minutes at 37° C. in 1 ml of the uptake buffer to deplete cellular amino acids. The buffer was then replaced with 600 μl uptake buffer containing 200 μM of SW V-49s and 0.12 μCi (80-110 mCi/mmol) of L-[3,3′-^14C]-cystine (American Radiolabeled Chemicals. St Louis. Mo.) and incubated for 3 minutes at 37° C. After that, cells were washed three times with ice-cold uptake buffer and lysed in 500 μl of 0.1 M NaOH. To this lysate, 1 ml of scintillation fluid was added, and radioactive counts per minute were obtained by using a scintillation counter.
To evaluate this mechanism. AsPC-1 cells were plated in 6 well plate for 24 hours. Cells were then treated with the same concentration of SV119, Erastin, combination of SV119 and Erastin. SW V-49s, and DMSO as a control. After that, a cystine uptake assay was performed. […] Erastin, and combination of SV 119 and Erastin, respectively (p=0.004, FIG. 11A).

[2] = test system: all human and murine pancreatic cancer cell lines tested; test: Viability assay on panel of pancreatic cancer cell lines; type: cell-based
Protocol: (§1) In these experiments, viability assays after 24 hours treatment of human and murine pancreatic cancer cell lines and synovial sarcoma cell lines with SW V-49s or its parent compounds SV119 and Erastin, both singly and in combination, were performed. […] In comparison.
(§2) Cytotoxicity of the drugs was evaluated by CELLTITER-GLO®. Luminescent cell viability assay (Promega, Madison, Wis.). Pancreatic cell lines were plated at a density of 2×10^4/well in white 96 well, clear bottom plates for 24 hours prior to treatment. Drugs were dissolved in DMSO and serially diluted in culture medium to achieve the final concentration of DMSO less than 1%. Cells were then treated for 24 hours and 100 μl of the CELLTITER-GLO® reagent was added to each well. The contents of the plates were mixed using an orbital shaker and subsequently incubated for 10 minutes at room temperature. Luminescence signal was measured using a multi-mode microplate reader (BioTek instruments. Winooski, Vt.). Different drug concentrations were assayed in triplicate. To evaluate the efficacy of the drugs, IC50 of the compounds was calculated on a panel of human and mouse derived pancreatic cancer cell lines in vitro. Cells were treated for 24 hours with SW V-49s, SV119, Erastin, and an equimolar mixture of SV119 and Erastin, then CELLTITER-GLO® viability assay was performed.

SYO-1 = test: Viability assay, 24 hours treatment, synovial sarcoma cells; type: cell-based
Protocol: as §1
Synovial sarcoma cell lines (FIG. 4F, SYO-1, ME1 deficient) are so sensitive to SW V-49s that it was difficult to measure the minimal drug concentration required to kill 50% of the cancer cells, but the measured IC50 was approx. 1.0 μM.
(§3) AsPC-1 and SYO-1 cells were plated in 96 well plate overnight then treated with similar concentrations of Erastin for 24 hours. Viability assay was performed after 24 hours. […] (p<0.0001), (FIG. 10).

AsPC-1 = test: Viability assay (CELLTITER-GLO), 24 hours treatment; type: cell-based, human
Protocol: as §1, §2, §3

[3] = 24 hours treatment, SYO-1, ME1 deficient, FIG. 4F, read-out: IC50

SMILES | reduction in cystine uptake [1] | IC50 ([2]; 24 hours treatment, against all human and murine pancreatic cancer cell lines tested, read-out: IC50) | IC50 (SYO-1; [3]) | IC50 (AsPC-1; 24 hours, mean ± SEM, n ≥ 3, read-out: IC50 ± SEM, AsPC-1) | fold less cysteine uptake [1] | reduction of IC50 as compared to equimolar mixture of SV119 and Erastin ([2]; 24 hours, pancreatic cancer cell line panel) | IC50 (AsPC-1; Homo sapiens, ASPC1, 24 h, read-out: IC50 concentration) | IC50 (AsPC-1; Homo sapiens, ASPC1, 24 hours, mean ± SEM, n ≥ 3, read-out: IC50 ± SEM, AsPC-1) | IC50 ([2]; Pancreatic cancer cell, 24 h, 24 hours treatment, against all human and murine pancreatic cancer cell lines tested) | IC50 ([2]; Pancreatic cancer cell, 24 h, panel of human and mouse derived pancreatic cancer cell lines) | death of cells (SYO-1; 40 μM, 24 hours, SYO-1 cells, FIG. 10) | IC50 (SYO-1; 24 h) | death of cells (AsPC-1; 40 μM, 24 hours, AsPC-1 cells, FIG. 10) | IC50 (AsPC-1; Homo sapiens, ASPC1, 24 h, read-out: IC50 ± SEM, AsPC-1)
COc1ccc(C)cc1NC(=O)OC1C[C@H]2CCC[C@@H](C1)N2CCCCCCN (some centres unmarked) [SV119, reference compound] | 25% | > 54 µM | 6.2 µM | 111 ± 8.3 µM | – | – | – | – | – | – | – | – | – | –
CCOc1ccccc1-n1c(CN2CCN(C(=O)COc3ccc(CNCCCCCCN4C5CCCC4CC(OC(=O)Nc4cc(C)ccc4OC)C5)cc3)CC2)nc2ccccc2c1=O.O=C(O)C(=O)O (centres unmarked) [SW V-49s] | 85% | – | ~1 µM | – | 3.7 fold | 17-20 fold | 3 µM | 3.2 ± 0.3 µM | – | – | – | – | – | –
CCOc1ccccc1-n1c(C(C)N2CCN(C(=O)COc3ccc(Cl)cc3)CC2)nc2ccccc2c1=O (centres unmarked) [Erastin] | 41% | – | – | – | – | – | – | – | > 100 µM | > 150 µM | 84% | > 16 µM | 2% | > 150 µM
